Data taken from US12544378B2, “Solid pharmaceutical formulation of PARP inhibitors and use thereof” (IMPACT THERAPEUTICS (SHANGHAI), INC, priority 2015, dated 2026).

Experiments:
[1] = Effects of vehicle formulas on drug absorption, mouse pharmacokinetics (PK) method (Example 8); format: in vivo; conditions: ICR mice, gavage, solution in DMSO:10% HP-β-CD PBS=1:9
Experimental: Measurement of the Effects of 5-fluoro-1-(4-fluoro-3-(4-(pyrimidin-2-yl)piperazine-1-carbonyl)benzyl)quinazoline-2,4(1H,3H)-dione Vehicle Formulas on the Drug Absorption Using a Mouse Pharmacokinetics (PK) Method
5-Fluoro-1-(4-fluoro-3-(4-(pyrimidin-2-yl)piperazine-1-carbonyl)benzyl)quinazoline-2,4(1H,3H)-dione in different vehicle formulas at the same dosage was administered to ICR mice by gavage. The blood was sampled at 30 min after gavage, the blood concentrations were measured by LCMS method, and the effects on the drug absorption of different vehicle formulas was made a comparison. The blood concentrations were shown as the table below: […]

[2] = Absorption of amorphous solid dispersion HP-55 (1:3), rat pharmacokinetics (PK) method (Example 12); format: in vivo; conditions: whole blood, Wistar rats, IV, 1 mg/kg, solution in DMSO:10% HP-β-CD PBS (1:9)
Experimental: Measurement of the Absorption Ratio of the Amorphous Solid Dispersions of 5-fluoro-1-(4-fluoro-3-(4-(pyrimidin-2-yl)piperazine-1-carbonyl)benzyl)quinazoline-2,4(1H,3H)-dione:HP-55 (1:3) Using a Rat Pharmacokinetics (PK) Method
(§1) The solution of 5-fluoro-1-(4-fluoro-3-(4-(pyrimidin-2-yl)piperazine-1-carbonyl)benzyl)quinazoline-2,4(1H,3H)-dione in DMSO:10% HP-β-CD PBS (1:9) was administered to Wistar rats at 1 mg/kg by IV. And the homogeneous suspension of the amorphous solid dispersion of 5-fluoro-1-(4-fluoro-3-(4-(pyrimidin-2-yl)piperazine-1-carbonyl)benzyl)quinazoline-2,4(1H,3H)-dione:HP-55 (1:3) in 0.5% MC/water was administered to Wistar rats at 10 mg/kg by IG. The blood was sampled at a certain time after administration. The blood concentrations were measured by LCMS method, and the oral absorption was measured by a rat pharmacokinetics (PK) method.

[3] = Absorption of amorphous solid dispersion HP-55 (1:3), mouse pharmacokinetics (PK) method (Example 11); format: in vivo; conditions: whole blood, mice, IV, 1 mg/kg, solution in DMSO:10% HP-β-CD PBS (1:9)
Experimental: Measurement of the Absorption Ratio of the Amorphous Solid Dispersions of 5-fluoro-1-(4-fluoro-3-(4-(pyrimidin-2-yl)piperazine-1-carbonyl)benzyl)quinazoline-2,4(1H,3H)-dione:HP-55 (1:3) Using a Mouse Pharmacokinetics (PK) Method
as §1, with “to mice” for “to Wistar rats”, “a mouse” for “a rat”

Water solubility = format: physicochemical
[4] = Bioavailability after oral administration of the crystalline compound; conditions: mouse, in vivo, mice, simple mixture of crystalline compound with surfactants (Tween 80) and emulsifiers (methylcellulose)

- oral absorption rate [1]: 48%
- AUC(0-inf) ([2]; female): 1290 ng·h/mL
- AUC(0-t) ([2]; female): 1250 ng·h/mL
- Cmax ([2]; female): 618 ng/mL
- half-life ([2]; female): 304 min
- AUC(0-inf) ([2]; male): 365 ng·h/mL
- AUC(0-t) ([2]; male): 363 ng·h/mL
- Cmax ([2]; male): 896 ng/mL
- half-life ([2]; male): 51 min
- AUC(0-inf) [3]: 997 ng·h/mL
- AUC(0-t) [3]: 991 ng·h/mL
- Cmax [3]: 1920 ng/mL
- half-life [3]: 32.7 min
- water solubility (in words) (Water solubility): very low
- bioavailability [4]: < 5%
SMILES: O=C(c1cc(Cn2c(=O)[nH]c(=O)c3c(F)cccc32)ccc1F)N1CCN(c2ncccn2)CC1 [5-fluoro-1-(4-fluoro-3-(4-(pyrimidin-2-yl)piperazine-1-carbonyl)benzyl)quinazoline-2,4(1H,3H)-dione]
